Common to all, as to format: in vivo
Assay [1] deals with Erysiphe graminis f.sp.tritici. In words: Erysiphe test (wheat)/protective. To be noted: protective, application rate 125 g/ha, evaluation 6 days after inoculation. The method, then: Erysiphe Test (Wheat)/Protective To produce a suitable preparation of active compound, a commercial formulation of active compound or active compound combination is diluted with water to the desired concentration. To test for protective activity, young plants are sprayed with the active compound preparation at the stated application rate. After the spray coating has dried on, the plants are dusted with spores of Erysiphe graminis f.sp.tritici. The plants are placed in a greenhouse at a temperature of about 20° C. and a relative atmospheric humidity of about 80% to promote the development of mildew pustules. Evaluation is carried out 6 days after the inoculation. 0% means an efficacy which corresponds to that of the control, whereas an efficacy of 100% means that no infection is observed.

Assay [2] deals with Leptosphaeria nodorum. In words: Leptosphaeria nodorum test (wheat)/curative. To be noted: curative, application rate 500 g/ha, evaluation 12 days after inoculation. The method, then:
Leptosphaeria nodorum Test (Wheat)/Curative To produce a suitable preparation of active compound, a commercial formulation of active compound or active compound combination is diluted with water to the desired concentration. To test for curative activity, young plants are sprayed with a conidia suspension of Leptosphaeria nodorum. The plants remain in an incubation cabin at 20° C. and 100% relative atmospheric humidity for 48 hours and are then sprayed with the active compound preparation at the stated application rate. The plants are placed in a greenhouse at a temperature of about 15° C. and a relative atmospheric humidity of about 80%. Evaluation is carried out 12 days after the inoculation. 0% means an efficacy which corresponds to that of the control, whereas an efficacy of 100% means that no infection is observed.

The subject of assay [3] is Fusarium nivale var. majus. In words: Fusarium nivale (var. majus) test (wheat)/curative. The settings on record: curative, evaluation 11 days after inoculation. How it is done: Fusarium nivale (var. majus) Test (Wheat)/Curative To produce a suitable preparation of active compound, a commercial formulation of active compound or active compound combination is diluted with water to the desired concentration. To test for curative activity, young plants are sprayed with a conidia suspension of Fusarium nivale var. majus. The plants remain in an incubation cabin at 15° C. and 100% relative atmospheric humidity for 24 hours and are then sprayed with the active compound preparation at the stated application rate. After the spray coating has dried on, the plants remain in a greenhouse under transparent incubation hoods at a temperature of about 15° C. and a relative atmospheric humidity of about 100%. Evaluation is carried out 11 days after the inoculation. 0% means an efficacy which corresponds to that of the control, whereas an efficacy of 100% means that no infection is observed.

Experimental findings from patent US7795178B2, “Fungicidal active combinations spiroxamine, prothioconazole and tebuconazole” (Bayer CropScience AG, priority 2003, dated 2010) are described below.

Take `CC(C)(C)C(O)(CCc1ccc(Cl)cc1)Cn1cncn1` (stereo not drawn) [(III) tebuconazole, tebuconazole]: the Efficacy in % was determined as 78% in assay [1] and 40% in assay [2]. Moreover, the “Efficacy in % found” value in assay [3] (application rate 55 g/ha) stood at 33%.
For `OC(Cc1ccccc1Cl)(Cn1nc[nH]c1=S)C1(Cl)CC1` (stereo not drawn) [(II) prothioconazole, prothioconazole] the same measures were 78%, 20% and 17%.
In the case of `CCCN(CC)CC1COC2(CCC(C(C)(C)C)CC2)O1` (stereo not drawn) [(I) spiroxamine, 8-tert-butyl-1,4-dioxaspiro[4.5]decan-2-ylmethyl(ethyl)(propyl)amine], the Efficacy in % is listed as 33% in assay [1] and 0% in assay [2]. Also, the “Efficacy in % found” value in assay [3] (application rate 140 g/ha) worked out at 17%.
